From patent US5091397A (priority 1988, dated 1992)
Structures can show the parent of a compound that is named as a salt. Where two headings read alike, the source gives them in different places.

Assays:
muscarinic receptors [1] = test: Radio ligand binding: displacement of the muscarinic agonist 3H-Oxotremorine-M (3H-OXO-M) from cerebral cortex membranes; set-up: species or system Hooded Lister rats; details: displacement of muscarinic agonist 3H-OXO-M (2nM), rat cerebral cortex, 2mM magnesium chloride, 37° C., 30 min
muscarinic receptors [2] = format: binding, Hooded Lister rats; details: displacement of muscarinic antagonist 3H-QNB (0.27nM), rat cerebral cortex, 37° C., 30 min

| SMILES | IC50 (muscarinic receptors [1]) [µM] | IC50 (muscarinic receptors [2]) [µM] |
| --- | --- | --- |
| c1coc(C[C@H]2CN3CC[C@@H]2C3)n1 (relative stereo) [Example E7, (±) endo 3-(1,3-Oxazol-2-yl)methyl]-1-azabicyclo[2.2.1]heptane oxalate salt] | 0.042 | 8 |
| Cc1noc(C[C@H]2CN3CC[C@@H]2C3)n1 (relative stereo) [Example E6, (±) endo 3-(3-Methyl-1,2.4-oxadiazol-5-yl)methyl-1-azabicyclo[2.2.1]heptane oxalate salt] | 0.15 | 10.2 |
| Nc1noc(C[C@@H]2C[C@@H]3CCN(C2)C3)n1 (relative stereo) [Example E9, (±) endo 3-[(3-Amino-1,2,4-oxadiazol-5-yl)methyl]-1-azabicyclo[3.2.1]octane] | 0.925 | 4.6 |
| Cc1noc(CC2CN3CCC2CC3)n1 (racemic) [Example E2, (±) 3-[(3-Methyl-1,2,4-oxadiazol-5-yl)methyl]-1-azabicyclo[2.2.2]octane hydrochloride salt] | 1.05 | 13 |
| Nc1noc(C[C@@H]2CN3CC[C@@H]2C3)n1 (relative stereo) [Example E1, (±) exo 3-[(3-Amino-1,2,4-oxadiazol-5-yl)methyl]-1-azabicyclo[2.2.1]heptane] | 0.0365 | 7.5 |
| c1coc(CC23CCN(CC2)C3)n1 [Example E14, 4-[(1,3-Oxazol-2-yl)methyl]-1-azabicyclo[2.2.1]heptane oxalate salt] | 0.41 | 74 |
| c1ncc(C[C@H]2CN3CC[C@@H]2C3)o1 (relative stereo) [Example E8, (±) endo 3-(1,3-Oxazol-5-yl)methyl-1-azabicyclo[2.2.1]heptane hydrochloride salt] | 0.625 | 38 |
| Nc1noc(CC23CCCN(CC2)C3)n1 (racemic) [Example E4, (±) 5-[(3-Amino-1,2,4-oxadiazol-5-yl)methyl]-1-azabicyclo[3.2.1]octane] | 0.58 | 6.7 |
| Nc1noc(C[C@H]2CN3CC[C@@H]2C3)n1 (relative stereo) [Example E5, (±) endo 3-[(3-Amino-1,2,4-oxadiazol-5-yl)methyl]-1-azabicyclo[2.2.1]heptane] | 0.032 | 21 |
| c1coc(C[C@@H]2CN3CC[C@@H]2C3)n1 (relative stereo) [Example E10, (±) exo 3-(1,3-Oxazo1-2-yl)methyl-1-azabicyclo [2.2.1]heptane oxalate salt] | 0.038 | 5.6 |
| Cc1nc(C[C@@H]2CN3CC[C@@H]2C3)no1 (relative stereo) [Example E16, (±) exo 3-[(5-Methyl-1,2,4-oxadiazol-3-yl)methyl)-1-azabicyclo[2.2.1]heptane hydrochloride salt] | 1 |  |
| Cn1nnc(C[C@H]2CN3CC[C@@H]2C3)n1 (relative stereo) [Example E11, (±) endo 3-[(2-Methyltetrazol-5-yl)methyl]-1-azabicyclo[2.2.11]heptane oxalate salt] | 0.34 | 8 |
| Nc1noc(CC23CCN(CC2)C3)n1 [Example E13, 4-[(3-Amino-1,2,4-oxadiazol-5-yl)methyl]-1-azabicyclo[2.2.1]heptane] | 0.118 | 85 |
| c1coc(CC23CCCN(CC2)C3)c1 (racemic) [Example E12, (±) 5-[(Fur-2-yl)methyl-1-azabicyclo[3.2.1]octane oxalate salt] | 0.66 | 4 |
| c1csc(CC2CN3CCC2CC3)n1 (racemic) [Example E17, (±) 3-((1,3-Thiazol-2-yl)methyl)-1-azabicyclo[2.2.2]octane oxalate salt] | 0.875 |  |
| Cc1nc(C[C@H]2CN3CC[C@@H]2C3)no1 (relative stereo) [Example E15, (±) endo 3-[(5-Methyl-1,2,4-oxadiazol-3-yl)methyl-1-azabicyclo[2.2.11]heptane hydrochloride salt] | 0.95 | 30.5 |
| c1coc(CC2CN3CCC2CC3)n1 (racemic) [Example E3, (±) 3-(1,3-Oxazol-2-yl)methyl]-1-azabicyclo[2.2.2]octane oxalate salt] | 0.755 | 7 |
